# Results published in US5071988A, “Substituted benzoylbenzene-, biphenyl- and 2-oxazole-alkanoic acid derivatives” (American Home Products Corporation, priority 1991, dated 1991).
# Read-outs that look alike come from different tables or passages of the source.
# Experiments:
# [1] = test system: LTC4 (lipoxygenase pathway); test: in vivo murine zymosan peritonitis assay, LTC4; set-up: species or system mouse (male CD-1); details: for ED50 LTC4: p.o., 1 hour prior to zymosan, standard drugs
# Description: (§1) The compounds of the invention are evaluated for their ability to inhibit the lipoxygenase and/or cyclooxygenase pathways of arachidonic acid metabolism in the in vivo murine zymosan peritonitis assay.
# (§2) Male CD-1 mice (8 weeks old) are placed in plastic boxes in groups of six. Animals are injected with 1 mL i.p. of either 1% zymosan in pyrogen free 0.9% saline or saline (unstimulated control). Compounds are dosed orally 1 hour prior to zymosan injection. Twenty minutes after zymosan injection, the mice are asphyxiated by CO2 inhalation and the peritoneal cavity is lavaged with 2 mL ice cold Hanks Balanced Salt Solution (HBSS) without CaCl2, MgSO4. 7H2 O and MgCl2.6H2 O. Peritoneal lavage fluid from each mouse is removed by syringe and placed in 5 mL plastic test tubes put on ice and volume is noted. Preparation of samples for evaluation by ELISA is as follows: Samples are centrifuged at 800 xg for 15 minutes; 1 mL of the supernatant is added to 8 mL ice cold methanol and kept at -70° C. overnight to precipitate protein; and samples are then centrifuged at 800 xg for 15 minutes, followed by a drying procedure in a Savant speed vac concentrator. The samples are reconstituted with 1 mL ice cold ELISA buffer and stored at -70° C. until assayed. The assay for eicosanoids (LTC4 and 6-keto-PGF1α) is performed according to conventional ELISA procedures.
# Compounds to be tested orally are suspended in 0.5% Tween 80. Compounds to be tested intraperitoneally are suspended in 0.5% methylcellulose in 0.9% saline.
# (§3) The total metabolite level in lavage fluid/mouse is calculated and the significance is determined by a one-way analysis of variance with LSD comparisons to control (p≤0.05). Drug effects are expressed as a percent change from control values.
# [2] = test system: TxB2; test: reverse passive Arthus pleurisy assay, TxB2; assay type: in vivo, rat (male Lewis); details: Rattus norvegicus, po, 5 min, read-out: ED50 TxB2
# Description: (§4) The compounds of the invention are further tested in the reverse passive Arthus pleurisy assay to evaluate their effectiveness in inflammatory mediator release and/or the fluid and cellular phases of an inflammatory response.
# (§5) A reverse passive Arthus reaction is induced in the pleural cavity of male Lewis rats (150-200 g; fasted overnight prior to use) by the intravenous administration of bovine serum albumin (BSA; 4 mg/0.2 ml) followed by 30 minutes later by the injection of rabbit anti-BSA (1 mg/0.2 ml; lyophilized IgG fraction; Organon Teknika, West Chester, Pa.) into the right pleural space under halothane anesthesia. Drugs or vehicle (0.5% Tween-80) control are administered orally in a volume of 1 ml/100 g body weight at 1 hour prior to the anti-BSA. Animals are sacrificed at either the time of peak eicosanoid production (i.e. 5 minutes after anti-BSA for immunoreactive TxB2 10 minutes for immunoreactive LTB4, 20 minutes for immunoreactive LTC4) or at the time of peak neutrophil infiltration (4 hours after anti-BSA) by CO2 inhalation. The pleural cavity is then exposed, the fluid exudate removed by gentle vacuum aspiration and the volume of exudate is recorded. For the determination of cellular infiltration, the pleural cavity is rinsed with 3 ml of 0.1% EDTA in sterile saline, and the recovered wash is pooled with the exudate. Cell number is determined on a model ZBI Coulter counter. For determination of eicosanoid production, undiluted pleural exudate is microfuged and the supernatant is extracted with ethanol (8-10 times volume). Extracts are either stored at -20° C., or are evaporated to dryness under a stream of N2 and reconstituted in radioimmunoassay (RIA) buffer.
# (§6) Eicosanoids are quantitated by RIA according to the procedure specified by the RIA kit manufacturer (Advanced Magnetics, Cambridge, Mass.). Briefly, 100 μl of ^3 H-labeled eicosanoid and 100 μl of specific antibody are sequentially added to 100 μl of extracted pleural exudate in BGG -phosphate buffer which contains 0.01M phosphate, 0.1% bovine gamma globulin and 0.1% sodium azide at pH 7.0. Antibody-bound eicosanoid is separated from unbound eicosanoid by the addition of 750 μl of dextran (0.4%)-coated charcoal (0.4% Norit A) containing 0.1% sodium azide. The mixture is centrifuged at 2000 RPM at 5° C. for 15 minutes to pellet the charcoal and adsorbed unbound eicosanoid. Antibody-bound labeled eicosanoid is quantitated by counting in a liquid scintillation counter, and is correlated to concentration by a standard curve.
# (§7) Inflammatory cells are expressed as 10^6 cells/ml, pleural exudate is expressed as ml of fluid, and the amount of eicosanoids in the pleural cavity is expressed as ng/ml of exudate. Mean±S.E.M. is determined for each group. Percent inhibition (% I) of cell number, exudate volume and eicosanoid production is calculated for vehicle-treated control groups, and the responses in drug-treated rats are then expressed as the mean % I of the control. […] Exp. Ther., 96, 99-113 (1949).
# [3] = test system: 6-keto-PGF1α /TxB2 (cyclooxygenase pathway); test: in vivo murine zymosan peritonitis assay, 6-keto-PGF1α; set-up: species or system mouse (male CD-1)
# Description: as §1
# as §2, with “The samples are reconstituted with 1 mL ice cold ELISA buffer and stored at -70° C. until assayed. The assay for eicosanoids (LTC4 and 6-keto-PGF1α) is performed according to conventional ELISA procedures.” left out
# as §3
# [4] = test system: LTB4; test: reverse passive Arthus pleurisy assay, LTB4; assay type: in vivo, rat (male Lewis); details: Rattus norvegicus, po, 1 hour prior to anti-BSA; standard drugs; read-out: ED50 LTB4
# Description: as §4, §5, §6, §7
# [5] = test system: Fluid Exudation; test: reverse passive Arthus pleurisy assay, fluid exudation; assay type: in vivo, rat (male Lewis); details: Rattus norvegicus, po, 1 hour prior to anti-BSA; standard drugs
# Description: as §4, §5, §7
# [6] = test system: Cellular Influx; test: reverse passive Arthus pleurisy assay, cellular influx; assay type: in vivo, rat (male Lewis); details: Rattus norvegicus, po, 4 h, 1 hour prior to anti-BSA; standard drugs
# Description: as §4, §5, §7
# [7] = test system: LTB4 synthesis by rat glycogen-elicited polymorphonuclear leukocytes (PMN); test: inhibition of LTB4 synthesis by rat glycogen-elicited polymorphonuclear leukocytes (PMN); assay type: cell-based, rat (female Wistar); details: Leukocyte, at 10 μM
# Source text: This is especially true with respect to 5,12-diHETE, which is also denoted as LTB4 [see Ford-Hitchinson, J. Roy. […] Med., 74, 831 (1981)]. Compounds which inhibit the PLA2 -mediated release of arachidonic acid thereby effectively prevent the oxidation of arachidonic acid to the various leukotriene products via the lipoxygenase cascade. Accordingly, the specificity of action of PLA2 inhibitors can be determined by the activity of test compounds in this assay, which measures the ability of compounds to inhibit the synthesis of LTB4 by rat glycogen-elicited polymorphonuclear leukocytes (PMN) in the presence of exogenous substrate.
# The assay is carried out as follows:
# Rat polymorphonuclear leukocytes (PMNs) are obtained from female Wistar rats (150-200 g) which receive an injection of 6% glycogen (10 ml i.p.). Rats are sacrificed 18-24 hours post injection by CO2 asphyxiation and the elicited cells are harvested by peritoneal lavage using physiological saline (0.9% NaCl). The exudate is centrifuged at 400 xg for 10 minutes. The supernatant fluid is discarded and the cell pellet is resuspended to a concentration of 2.0×10^7 cells/mL in HBSS containing Ca^++ and Mg^++ and 10 μM L-cysteine.
# To 1 mL aliquots of cell suspension, test drugs or vehicle are added, then preincubated at 37° C. for 10 minutes. A23187 (1 μM), [^3 H]-AA (3.0 μCi/mL) and unlabeled AA (1 μM) are then added and the samples are further incubated for 10 minutes. The reaction is terminated by centrifugation and pelleting cells. Supernatants are then analyzed by HPLC analysis on a 15 cm×4.6 mm ID supelcosil LC-18 (Supelco)(3M) column, using a two solvent system at a flow rate of 1.4 mL total flow as follows:
# Gradient: (system is equilibrated with Solvent A)
# Percent solvent changes are accomplished in a linear fashion.
# Injections: 140 μL of each supernatant is injected directly onto column and ^3 H arachidonic acid metabolites are monitored using an on-line radioactivity detector (Ramona, IN/US, Fairfield, N.J.).
# Standards: 10^4 -2.0×10^4 dpm of eicosanoids of interest are injected in 90 μL EtOH cocktail.
# Results are expressed as percent inhibition at a given compound dose or as an IC50 value.
smiles,measurement,setting,value
CC(C)Cc1ccc(C(C)C(=O)O)cc1 (centres unmarked) [Ibuprofen],ED50 LTC4,[1],Not Active
COc1ccc2c(c1)c(CC(=O)O)c(C)n2C(=O)c1ccc(Cl)cc1 [Indomethacin],ED50 LTC4,[1],Not Active
same,ED50,[2],0.16 mg/kg
NC1=NN(c2cccc(C(F)(F)F)c2)CC1 [BW755C],ED50,"[3]; Mus musculus, po, 20 min, 1 hour prior to zymosan, standard drugs",22 mg/kg
same,ED50,"[2]; p.o., 1 hour prior to anti-BSA, standard drugs",18 mg/kg
same,ED50,[4],23 mg/kg
same,ED30,[5],14 mg/kg
same,ED30,[6],28 mg/kg
"O=C(O)CCc1nc(-c2ccc(OCc3ccc4ccccc4n3)cc2)c(-c2ccccc2)o1 [Example 5, 5-Phenyl-4-[4-(2-Quinolinylmethoxy)phenyl]-2-oxazole propanoic acid]",inhibition at 10 µM,[7],96%
same,% Inhibition LTC4,[1]; 10 mg/kg i.p.,86%
same,% Inhibition 6-keto-PGF,"[3]; 10 mg/kg i.p., negative values denote potentiation",-27%
